Test results from patent publication US12521403B2, “Compositions for the treatment of chronic vulval and perineal pain and symptoms and conditions associated therewith” (TA Pharma Pty Limited, priority 2016, dated 2026).
Where a name gives a salt, the structure may show the parent alone. Read-outs that look alike come from different tables or passages of the source.

What was measured:
[1] = cited from earlier work
[2] = Dissolution of estriol in solvents for the organic phase of the organogel; type: physicochemical; conditions: propylene glycol alone
Experimental: The ratio of propylene glycol to LIP was 4:10. For the aqueous phase, amitriptyline HCL was dissolved in water, then PLURONIC® F-127 was added to give a 20% PLURONIC® solution. The two phases were mixed using a syringe to syringe transfer method which produce a relatively high shear mixing. The ratio of organic to aqueous phases was 1:2. This produced a stable organogel with final concentrations of 300 mcg/g estriol and 0.5% w/w amitriptyline. Stability may be increased by the addition of potassium sorbate.
To increase the dissolution of the estriol in the organic phase, and thereby improve bioavailability, a combination of solubiliser (diethylene glycol monoethyl ether) and propylene glycol was employed. […] This was then blended with the LIP to produce the organic phase.

dissolution in propylene glycol [2] | SMILES | solubility in water ([1]; water) [mg per litre] | solubility in water ([1]; at pH 1.2) [mg/mL] | solubility in water ([1]; at pH 6.8) [mg/mL]
did not produce a clear solution | C[C@]12CC[C@@H]3c4ccc(O)cc4CC[C@H]3[C@@H]1C[C@@H](O)[C@@H]2O [Estriol] | 27 | – | –
– | CN(C)CCC=C1c2ccccc2CCc2ccccc21 [Amitriptyline HCL] | – | 1000 | 0.9
